Some results are limits rather than exact numbers.

In assay [1] the test system is cultured human mast cells (CHMC). The assay can be described thus: CHMC low cell density ionomycin activation: tryptase assay. The format is cell-based.
The test system is the same in assay [2]. Nature of the assay: CHMC low cell density IgE activation: tryptase assay. The format is cell-based. The note with it: anti-IgE. Put shortly:
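Degranulation is read as supernatant tryptase activity, using tryptase substrate incubated 30 min at room temperature. Before this, CHMC at low density (1000-1500 cells/well) rest 1 hr at 37° C and are triggered with anti-IgE for 30 min at 37° C.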

As to `Cn1nnnc1COc1ccc(Nc2ncc(F)c(Nc3cccc(O)c3)n2)cc1` [R920860, 5-Fluoro-N4-(3-hydroxyphenyl)-N2-[4-(1-methyl-1,2,3,4-tetrazol-5-yl)methyleneoxyphenyl]-2,4-pyrimidineamine], the IC50 in assay [1] is greater than 10 µM; in assay [2], 1.01 µM.

Regarding `Cn1nnnc1COc1ccc(Nc2ncc(F)c(Nc3cccc(O)c3)n2)cc1` [R920861, 5-Fluoro-N4-(3-hydroxyphenyl)-N2-[4-(1-methyl-1,2,3,4-tetrazol-5-yl)methyleneoxyphenyl]-2,4-pyrimidineamine], the results for the IC50 in assay [1] and in assay [2] were greater than 10 µM and 0.598 µM, respectively.

As for `Cc1cnc(Nc2ccc(OCc3nnn(C)n3)cc2)nc1Nc1cccc(O)c1` [R920893, N4-(3-Hydroxyphenyl)-5-methyl-N2-[4-(2-methyl-1,2,3,4-tetrazol-5-yl)methyleneoxyphenyl]-2,4-pyrimidineamine], the IC50 in assay [1] is greater than 10 µM; in assay [2], 1.24 µM.

Consider `Cc1cnc(Nc2ccc(OCc3nnnn3C)cc2)nc1Nc1cccc(O)c1` [R920894, N4-(3-Hydroxyphenyl)-5-methyl-N2-[4-(1-methyl-1,2,3,4-tetrazol-5-yl)methyleneoxyphenyl]-2,4-pyrimidineamine], for which the concentration for half-maximal inhibition (IC50) in assay [1] was determined as 5.57 µM; in assay [2] it was 0.888 µM.

For `Cn1nnc(COc2ccc(Nc3nccc(Nc4cccc(O)c4)n3)cc2)n1` [R920910, N4-(3-Hydroxyphenyl)-N2-[4-(2-methyl-1,2,3,4-tetrazol-5-yl)methyleneoxyphenyl]-2,4-pyrimidineamine], the IC50 in assay [1] is 7.92 µM; in assay [2] it was 0.751 µM.

On to `Cn1nnnc1COc1ccc(Nc2nccc(Nc3cccc(O)c3)n2)cc1` [R920917, N4-(3-hydroxyphenyl)-N2-[4-(1-methyl-1,2,3,4-tetrazol-5-yl)methyleneoxyphenyl]-2,4-pyrimidineamine], for which the IC50 in assay [1] came out at 9.73 µM; in assay [2], 1.58 µM.

For the compound `CN(C)C(=O)COc1cccc(Nc2ncc(F)c(Nc3ccc4c(c3)OCCO4)n2)c1` [R925755, N4-(3,4-Ethylenedioxyphenyl)-N2-[3-(N,N-dimethylamino)carbonylmethyleneoxyphenyl]-5-fluoro-2,4-pyrimidinediamine], the IC50 in assay [1] was greater than 10 µM; in assay [2], 0.898 µM.

For the compound `C[C@H](Nc1nc(Nc2ccc3c(c2)OCCO3)ncc1F)[C@H](O)c1ccccc1` [R925766, N2-(3,4-Ethylendioxyphenyl)-5-fluoro-N4-[(2R)-hydroxy-(1S)-methyl-2-phenylethyl)-2,4-pyrimidinediamine], the IC50 in assay [1] was greater than 10 µM; in assay [2] it was 8.9 µM.

For `CCOC(=O)COc1ccc(Nc2ncc(-c3nnn[nH]3)c(Nc3ccc(OCC(=O)OCC)cc3)n2)cc1` [R925810, N2,N4-Bis(4-ethoxycarbonylmethyleneoxyphenyl)-5-(1,2,3,4-tetrazol-5-yl)-2,4-pyrimidinediamine], the IC50 in assay [1] and in assay [2] was greater than 10 µM throughout.

On to `CCOC(=O)c1cnc(Nc2ccc(OCC(=O)NCC3CC3)cc2)nc1Nc1cccc(O)c1` [R925838, N2-[4-(N-Cyclopropylmethylamino)carbonylmethyleneoxyphenyl]-5-ethoxycarbonyl-N4-(3-hydroxyphenyl)-2,4-pyrimidinediamine], for which the IC50 in assay [1] and in assay [2] was greater than 10 µM throughout.

As to `CCOC(=O)c1cnc(Nc2ccc(OCC(=O)NC)cc2)nc1Nc1cccc(O)c1` [R925839, 5-Ethoxycarbonyl-N4-(3-hydroxyphenyl)-N2-[4-(N-methylamino)carbonylmethyleneoxyphenyl]-2,4-pyrimidinediamine], the IC50 in assay [1] and in assay [2] was greater than 10 µM throughout.

Regarding `CCOC(=O)c1cnc(Nc2ccc(OCC(=O)NCC(O)CO)cc2)nc1Nc1cccc(O)c1` (stereo not shown) [R925840, N2-[4-(N-2,3-Dihydroxypropylamino)carbonylmethyleneoxyphenyl]-5-ethoxycarbonyl-N4-(3-hydroxyphenyl)-2,4-pyrimidinediamine], the IC50 in assay [1] and in assay [2] was greater than 10 µM in each case.

For `COc1cccc(CNC(=O)COc2ccc(Nc3ncc(Br)c(Nc4ccc(OCC(=O)NCc5cccc(OC)c5)cc4)n3)cc2)c1` [R925841, N2,N4-Bis[4-[N-(3-methoxybenzylamino)carbonylmethyleneoxy]phenyl]-5-bromo-2,4-pyrimidinediamine], the IC50 in assay [1] and in assay [2] was greater than 10 µM throughout.

For `O=C(COc1ccc(Nc2nc(Nc3cccc(O)c3)ncc2Br)cc1)NCC1CC1` [R925842], the 50% inhibitory concentration (IC50) is greater than 10 µM in assay [1] and 7.3 µM in assay [2].

Turning to `COc1cccc(CNC(=O)COc2ccc(Nc3nc(Nc4cccc(O)c4)ncc3Br)cc2)c1` [R925843, 5-Bromo-N2-(3-hydroxyphenyl)-N4-[4-(N-3-methoxybenzylamino)carbonylmethyleneoxyphenyl]-2,4-pyrimidinediamine], the IC50 in assay [1] and in assay [2] was greater than 10 µM throughout.

Turning to `CNC(=O)COc1ccc(Nc2ncc(C#N)c(Nc3cccc(O)c3)n2)cc1` [R925844, 5-Cyano-N4-(3-hydroxyphenyl)-N2-[4-(N-methylamino)carbonylmethyleneoxyphenyl]-2,4-pyrimidinediamine], the half-inhibitory concentration (IC50) in assay [1] is greater than 10 µM; in assay [2], 5.1 µM.

With `N#Cc1cnc(Nc2cccc(O)c2)nc1Nc1ccc(OCC(=O)NCC2CC2)cc1` [R925845, 5-Cyano-N4-[4-(N-cyclopropylmethylamino)carbonylmethyleneoxyphenyl]-N2-(3-hydroxyphenyl)-2,4-pyrimidinediamine], the IC50 in assay [1] is greater than 10 µM; in assay [2], 2.3 µM.

For `N#Cc1cnc(Nc2ccc(OCC(=O)NCC(O)CO)cc2)nc1Nc1cccc(O)c1` (stereo not shown) [R925846, 5-Cyano-N4-(3-hydroxyphenyl)-N2-[4-(N-2,3-dihydroxypropylamino)carbonylmethyleneoxyphenyl]-2,4-pyrimidinediamine], the IC50 in assay [1] and in assay [2] was greater than 10 µM throughout.

With `CNC(=O)COc1ccc(Nc2nc(Nc3ccc4c(c3)OCCO4)ncc2Br)cc1` [R925851, 5-Bromo-N2-(3,4-ethylenedioxyphenyl)-N4-[4-(N-methylamino)carbonylmethyleneoxyphenyl]-2,4-pyrimidinediamine], the 50% inhibitory concentration (IC50) in assay [1] is greater than 10 µM; in assay [2], 0.925 µM.

For `CCCNC(=O)COc1ccc(Nc2ncc(C#N)c(Nc3ccc(OCC(=O)NCCC)cc3)n2)cc1` [R925853, N2,N4-Bis[4-(N-n-propylamino)carbonylmethyleneoxyphenyl]-5-cyano-2,4-pyrimidinediamine], the IC50 in assay [1] and in assay [2] was greater than 10 µM in each case.

With `N#Cc1cnc(Nc2ccc(OCC(=O)N3CCOCC3)cc2)nc1Nc1ccc(OCC(=O)N2CCOCC2)cc1` [R925854, N2,N4-Bis[4-(N-morphonlino)carbonylmethyleneoxyphenyl]-5-cyano-2,4-pyrimidinediamine], the half-maximal inhibitory concentration (IC50) in assay [1] and in assay [2] was greater than 10 µM throughout.

As to `N#Cc1cnc(Nc2ccc(OCC(=O)N3CCCCC3)cc2)nc1Nc1ccc(OCC(=O)N2CCCCC2)cc1` [R925855, N2,N4-Bis[4-(N-piperidino)carbonylmethyleneoxyphenyl]-5-cyano-2,4-pyrimidinediamine], the concentration for half-maximal inhibition (IC50) was greater than 10 µM in assay [1] and 4.2 µM in assay [2].

As for `CCOC(=O)CNc1nc(Nc2ccc(OCC(=O)OCC)cc2)nc(C(=O)OCC)c1[N+](=O)[O-]` [R925858, 6-Ethoxycarbonyl-N4-(ethoxycarbonylmethyl)-N2-(4-ethoxycarbonylmethyleneoxyphenyl)-5-nitro-2,4-pyrimidinediamine], the 50% inhibitory concentration (IC50) in assay [1] amounted to 7.3 µM; in assay [2], 8.05 µM.

For orientation: IC50 means the concentration needed to halve the response being measured.

For the origin of these results see patent publication US9499493B2, “2,4-pyrimidinediamine compounds and their uses” (Rigel Pharmaceuticals, Inc., priority 2002, dated 2016).
